Series [1] has as its target BaPDH (WT-BaPDH, full-length ACT-containing prephenate dehydrogenase) (Bacillus anthracis, UniProt Q81P63). Briefly: biochemical.
Series [2] deals with O=C(O)C(=O)CC1(C(=O)O)C=CC(O)C=C1. As to the kind of experiment: purified protein. The settings on record: pH 7.5.

We go through two molecules from paper doi:10.1101/2025.10.30.685691v1 (biorxiv, 2025).

BaPDH (WT-BaPDH, full-length ACT-containing prephenate dehydrogenase), sequence (Q81P63 1-378 limits assumed): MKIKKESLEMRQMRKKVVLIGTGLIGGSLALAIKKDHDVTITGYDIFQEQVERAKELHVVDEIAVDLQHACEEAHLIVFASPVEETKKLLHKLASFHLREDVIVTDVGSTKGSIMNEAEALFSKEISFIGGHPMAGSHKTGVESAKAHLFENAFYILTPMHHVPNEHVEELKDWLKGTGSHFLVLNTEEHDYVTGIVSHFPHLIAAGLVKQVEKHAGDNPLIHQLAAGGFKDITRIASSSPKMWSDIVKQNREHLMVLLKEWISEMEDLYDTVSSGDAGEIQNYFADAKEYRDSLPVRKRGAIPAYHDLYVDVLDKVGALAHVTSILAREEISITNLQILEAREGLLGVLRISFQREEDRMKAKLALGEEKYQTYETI

As for `N[C@@H](Cc1ccc(O)cc1)C(=O)O` [tyrosine], the Ki in series [1] worked out at 1500 ± 200 nM.
Turning to “BaPDH (WT-BaPDH, full-length ACT-containing prephenate dehydrogenase) (Bacillus anthracis)”, the Michaelis constant (Km) in series [2] stood at 78 ± 10 µM.

Broadly, the Ki is a measure of affinity in units of concentration, obtained from inhibition or displacement. Read a low Ki as tighter binding. In general, Km refers to the substrate concentration at which the rate is half of its maximum.
